According to patent publication US9233237B2, “Apparatus and method for periodic fluid-delivery/fluid-removal cycles in the cranial subarachnoid space to treat cerebral cortical disorders” (NEW YORK UNIVERSITY, priority 2010, dated 2016):

Tested on: monkey
Assay: EEG effects of drugs delivered through the implanted subdural/subarachnoid sheet body in a monkey
Assay type: in vivo
Settings: acetylcholine-induced EEG seizure, delivery through the sheet body over right frontal cortex (FIG. 8)
Method: In this experiment, drugs with known pharmacological actions were delivered through the sheet body 102 to test whether the inlet and outlet ports 112, 114 were clogged or obstructed, with the effects of the administered drugs monitored via EEG electrode contacts 113 integrated into the sheet body 102. The experiment was performed in a monkey approximately three months after the implantation of the sheet body 102 over the animal's right frontal cortex and the implantation of the control unit 130. During this post-surgical period, the delivery fluid was saline. On the day of this experiment, the mini-pump was temporarily modified to deliver a seizure-inducing agent (acetylcholine) through the sheet body 102, followed by a delivery of an antiepileptic drug (muscimol) through the same route. Traces 1 to 3 of FIG. 6 represent EEG recordings obtained with the EEG electrodes integrated into the subarachnoid sheet (ipsilateral recording channels 1, 2 and 3). The fourth trace of FIG. 6 was obtained from a subdural/subarachnoid electrode placed, during device implantation, in the left-side frontal cortex (contralateral recording channel).

SMILES: NCc1cc(=O)[nH]o1 [muscimol]
- time to stop of EEG seizure after delivery: ≤ 2 min
